Laboratory results as given in ChEMBL document CHEMBL1909046, “DrugMatrix in vitro pharmacology data”.

How the values were obtained:
[1] = DRUGMATRIX: Serotonin (5-Hydroxytryptamine) 5-HT3 radioligand binding (ligand: [3H] GR-65630); assay type: cell membranes, Membrane; conditions: hek293; Not Active = under 50% inhibition at 10 µM
[2] = DRUGMATRIX: Glutamate, Kainate radioligand binding (ligand: [3H] Kainic acid); assay type: cell membranes, Rattus norvegicus, Wistar, Brain, Membrane; conditions: Not Active = under 50% inhibition at 10 µM
[3] = target: T1, Alpha-2C adrenergic receptor (Homo sapiens, UniProt P18825); assay: DRUGMATRIX: Adrenergic Alpha-2C radioligand binding (ligand: [3H] MK-912); assay type: cell membranes, Sf9, Membrane
T1 sequence (P18825 whole entry): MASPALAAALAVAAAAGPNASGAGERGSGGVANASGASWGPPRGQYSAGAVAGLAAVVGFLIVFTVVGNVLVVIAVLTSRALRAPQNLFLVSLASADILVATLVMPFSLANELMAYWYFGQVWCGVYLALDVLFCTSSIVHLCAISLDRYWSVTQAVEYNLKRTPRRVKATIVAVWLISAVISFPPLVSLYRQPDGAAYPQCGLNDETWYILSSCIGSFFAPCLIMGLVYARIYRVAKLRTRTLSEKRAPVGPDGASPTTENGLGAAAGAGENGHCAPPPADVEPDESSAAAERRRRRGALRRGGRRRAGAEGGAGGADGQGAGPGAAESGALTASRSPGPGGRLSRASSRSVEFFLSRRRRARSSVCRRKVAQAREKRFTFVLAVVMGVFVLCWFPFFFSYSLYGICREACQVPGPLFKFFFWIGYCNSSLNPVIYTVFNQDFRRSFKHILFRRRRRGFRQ

[4] = target: T2, Endothelin-1 receptor (Homo sapiens, UniProt P25101); assay type: cell membranes, Membrane; conditions: cho-k1; also: in other assays of this panel Not Active means under 50% inhibition at 10 µM
T2 sequence (P25101 whole entry): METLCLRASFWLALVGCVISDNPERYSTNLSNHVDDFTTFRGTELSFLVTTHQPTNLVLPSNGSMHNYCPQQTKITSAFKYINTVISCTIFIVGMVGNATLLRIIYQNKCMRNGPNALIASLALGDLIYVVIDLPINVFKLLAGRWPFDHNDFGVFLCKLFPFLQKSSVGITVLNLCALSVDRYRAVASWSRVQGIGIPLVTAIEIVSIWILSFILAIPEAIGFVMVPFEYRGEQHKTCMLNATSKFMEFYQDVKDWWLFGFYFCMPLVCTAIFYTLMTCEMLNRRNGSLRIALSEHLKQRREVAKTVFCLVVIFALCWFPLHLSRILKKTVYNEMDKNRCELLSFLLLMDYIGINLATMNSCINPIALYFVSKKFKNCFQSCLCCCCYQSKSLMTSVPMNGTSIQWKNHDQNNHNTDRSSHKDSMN

[5] = target: Prostaglandin G/H synthase 1 (Homo sapiens, UniProt P23219); assay: biochemical; assay type: tissue-based, Platelet; conditions: platelet;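 also: inhibition of COX-1 enzyme activity, with arachidonic acid supplied as substrate; in other assays of this panel Not Active means under 50% inhibition at 10 µM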
Chain of Prostaglandin G/H synthase 1 (P23219 whole entry): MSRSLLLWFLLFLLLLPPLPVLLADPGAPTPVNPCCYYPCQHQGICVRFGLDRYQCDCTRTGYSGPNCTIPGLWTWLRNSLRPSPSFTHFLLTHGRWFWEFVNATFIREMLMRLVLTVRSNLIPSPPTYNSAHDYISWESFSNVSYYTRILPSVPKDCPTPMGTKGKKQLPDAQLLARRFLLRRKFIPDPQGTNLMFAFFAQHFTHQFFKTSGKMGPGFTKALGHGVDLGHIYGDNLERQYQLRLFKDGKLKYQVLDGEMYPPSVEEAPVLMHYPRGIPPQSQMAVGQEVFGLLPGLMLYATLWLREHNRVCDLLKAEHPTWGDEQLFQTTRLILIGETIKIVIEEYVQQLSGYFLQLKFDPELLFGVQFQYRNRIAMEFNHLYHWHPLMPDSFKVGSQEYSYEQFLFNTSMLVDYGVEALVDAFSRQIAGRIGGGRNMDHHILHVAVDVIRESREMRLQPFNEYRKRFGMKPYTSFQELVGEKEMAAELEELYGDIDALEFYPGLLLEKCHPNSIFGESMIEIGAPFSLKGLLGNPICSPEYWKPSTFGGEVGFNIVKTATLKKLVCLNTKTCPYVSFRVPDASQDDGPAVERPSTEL

[6] = target: Voltage-gated inwardly rectifying potassium channel KCNH2 (Homo sapiens, UniProt Q12809); conditions: hek293; also: in other assays of this panel Not Active means under 50% inhibition at 10 µM
Chain of Voltage-gated inwardly rectifying potassium channel KCNH2 (Q12809 whole entry): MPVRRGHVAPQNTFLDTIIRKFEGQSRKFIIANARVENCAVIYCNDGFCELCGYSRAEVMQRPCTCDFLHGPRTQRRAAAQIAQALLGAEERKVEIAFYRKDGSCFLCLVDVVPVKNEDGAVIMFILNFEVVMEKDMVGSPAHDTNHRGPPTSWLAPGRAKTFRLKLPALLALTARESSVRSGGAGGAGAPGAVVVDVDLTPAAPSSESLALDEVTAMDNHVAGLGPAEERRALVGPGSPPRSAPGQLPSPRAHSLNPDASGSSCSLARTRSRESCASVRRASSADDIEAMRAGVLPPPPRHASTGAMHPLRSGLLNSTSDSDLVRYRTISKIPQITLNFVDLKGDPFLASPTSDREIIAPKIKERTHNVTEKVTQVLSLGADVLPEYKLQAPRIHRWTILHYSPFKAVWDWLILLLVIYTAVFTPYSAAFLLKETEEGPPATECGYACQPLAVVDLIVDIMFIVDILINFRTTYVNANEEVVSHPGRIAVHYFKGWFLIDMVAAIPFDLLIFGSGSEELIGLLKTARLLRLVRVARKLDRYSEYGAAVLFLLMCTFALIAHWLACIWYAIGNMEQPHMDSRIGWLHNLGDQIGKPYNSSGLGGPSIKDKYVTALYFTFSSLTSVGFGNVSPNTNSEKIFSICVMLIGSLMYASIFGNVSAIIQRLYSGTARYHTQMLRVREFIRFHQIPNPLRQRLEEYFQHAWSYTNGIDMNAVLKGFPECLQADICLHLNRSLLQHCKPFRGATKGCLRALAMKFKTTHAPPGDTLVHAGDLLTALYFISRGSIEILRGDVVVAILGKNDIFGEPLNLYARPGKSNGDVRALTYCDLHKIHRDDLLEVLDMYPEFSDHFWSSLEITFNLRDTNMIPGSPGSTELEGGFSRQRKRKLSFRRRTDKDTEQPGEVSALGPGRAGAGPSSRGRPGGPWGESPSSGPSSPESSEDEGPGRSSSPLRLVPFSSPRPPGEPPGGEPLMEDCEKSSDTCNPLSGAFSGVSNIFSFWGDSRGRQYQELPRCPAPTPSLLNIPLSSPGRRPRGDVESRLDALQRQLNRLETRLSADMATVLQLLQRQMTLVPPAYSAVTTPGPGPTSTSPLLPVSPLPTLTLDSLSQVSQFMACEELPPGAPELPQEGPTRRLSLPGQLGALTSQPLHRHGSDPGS

[7] = target: Beta-3 adrenergic receptor (Homo sapiens, UniProt P13945); assay: DRUGMATRIX: Adrenergic beta3 radioligand binding (ligand: [125I] Cyanopindolol); assay type: cell membranes, HEK293, Membrane; conditions: Not Active = under 50% inhibition at 10 µM
Chain of Beta-3 adrenergic receptor (P13945 whole entry): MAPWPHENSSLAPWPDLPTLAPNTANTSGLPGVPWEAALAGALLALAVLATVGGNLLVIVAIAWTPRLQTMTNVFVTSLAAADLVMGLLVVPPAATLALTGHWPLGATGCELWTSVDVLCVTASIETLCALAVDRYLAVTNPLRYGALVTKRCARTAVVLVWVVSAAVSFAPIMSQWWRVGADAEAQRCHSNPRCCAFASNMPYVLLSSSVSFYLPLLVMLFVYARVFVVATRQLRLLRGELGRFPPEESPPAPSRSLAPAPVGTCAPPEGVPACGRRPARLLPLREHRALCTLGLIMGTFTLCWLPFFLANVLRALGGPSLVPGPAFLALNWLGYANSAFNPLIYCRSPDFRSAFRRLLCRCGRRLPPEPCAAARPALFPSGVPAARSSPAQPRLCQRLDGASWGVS

[8] = target: Cytochrome P450 2C19 (Homo sapiens, UniProt P33261); conditions: bti-tn-5b1-4; also: in other assays of this panel Not Active means under 50% inhibition at 10 µM
Chain of Cytochrome P450 2C19 (P33261 whole entry): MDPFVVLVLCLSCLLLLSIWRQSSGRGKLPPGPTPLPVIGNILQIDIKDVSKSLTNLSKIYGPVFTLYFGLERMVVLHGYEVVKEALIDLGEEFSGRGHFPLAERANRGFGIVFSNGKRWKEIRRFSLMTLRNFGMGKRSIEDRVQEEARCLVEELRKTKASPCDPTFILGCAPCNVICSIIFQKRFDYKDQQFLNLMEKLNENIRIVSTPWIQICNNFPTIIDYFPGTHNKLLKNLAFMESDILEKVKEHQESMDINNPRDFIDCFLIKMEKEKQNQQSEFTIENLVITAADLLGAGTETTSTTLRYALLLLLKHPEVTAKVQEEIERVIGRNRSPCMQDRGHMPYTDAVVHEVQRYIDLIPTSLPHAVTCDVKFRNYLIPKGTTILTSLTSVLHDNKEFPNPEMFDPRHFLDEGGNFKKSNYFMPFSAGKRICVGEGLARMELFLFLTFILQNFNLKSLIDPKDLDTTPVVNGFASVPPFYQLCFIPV

[9] = target: Substance-P receptor (Homo sapiens, UniProt P25103); assay type: cell membranes, CHO, Membrane; conditions: cho; also: in other assays of this panel Not Active means under 50% inhibition at 10 µM
Chain of Substance-P receptor (P25103 whole entry): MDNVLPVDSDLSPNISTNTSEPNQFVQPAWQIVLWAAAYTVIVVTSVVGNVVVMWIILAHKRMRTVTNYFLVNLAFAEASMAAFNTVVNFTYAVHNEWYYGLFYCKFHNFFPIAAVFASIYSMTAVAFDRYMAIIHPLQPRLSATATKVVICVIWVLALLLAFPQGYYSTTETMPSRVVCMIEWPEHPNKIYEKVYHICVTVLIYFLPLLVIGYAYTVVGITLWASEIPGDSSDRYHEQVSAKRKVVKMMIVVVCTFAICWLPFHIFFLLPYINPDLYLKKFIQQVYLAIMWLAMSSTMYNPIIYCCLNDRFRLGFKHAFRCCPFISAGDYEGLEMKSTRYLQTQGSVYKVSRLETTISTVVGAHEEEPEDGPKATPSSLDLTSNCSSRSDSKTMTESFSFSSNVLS

[10] = target: T3, Angiotensin-converting enzyme (Oryctolagus cuniculus, UniProt P12822); assay: biochemical; assay type: tissue-based, Lung
T3 sequence (P12822 whole entry): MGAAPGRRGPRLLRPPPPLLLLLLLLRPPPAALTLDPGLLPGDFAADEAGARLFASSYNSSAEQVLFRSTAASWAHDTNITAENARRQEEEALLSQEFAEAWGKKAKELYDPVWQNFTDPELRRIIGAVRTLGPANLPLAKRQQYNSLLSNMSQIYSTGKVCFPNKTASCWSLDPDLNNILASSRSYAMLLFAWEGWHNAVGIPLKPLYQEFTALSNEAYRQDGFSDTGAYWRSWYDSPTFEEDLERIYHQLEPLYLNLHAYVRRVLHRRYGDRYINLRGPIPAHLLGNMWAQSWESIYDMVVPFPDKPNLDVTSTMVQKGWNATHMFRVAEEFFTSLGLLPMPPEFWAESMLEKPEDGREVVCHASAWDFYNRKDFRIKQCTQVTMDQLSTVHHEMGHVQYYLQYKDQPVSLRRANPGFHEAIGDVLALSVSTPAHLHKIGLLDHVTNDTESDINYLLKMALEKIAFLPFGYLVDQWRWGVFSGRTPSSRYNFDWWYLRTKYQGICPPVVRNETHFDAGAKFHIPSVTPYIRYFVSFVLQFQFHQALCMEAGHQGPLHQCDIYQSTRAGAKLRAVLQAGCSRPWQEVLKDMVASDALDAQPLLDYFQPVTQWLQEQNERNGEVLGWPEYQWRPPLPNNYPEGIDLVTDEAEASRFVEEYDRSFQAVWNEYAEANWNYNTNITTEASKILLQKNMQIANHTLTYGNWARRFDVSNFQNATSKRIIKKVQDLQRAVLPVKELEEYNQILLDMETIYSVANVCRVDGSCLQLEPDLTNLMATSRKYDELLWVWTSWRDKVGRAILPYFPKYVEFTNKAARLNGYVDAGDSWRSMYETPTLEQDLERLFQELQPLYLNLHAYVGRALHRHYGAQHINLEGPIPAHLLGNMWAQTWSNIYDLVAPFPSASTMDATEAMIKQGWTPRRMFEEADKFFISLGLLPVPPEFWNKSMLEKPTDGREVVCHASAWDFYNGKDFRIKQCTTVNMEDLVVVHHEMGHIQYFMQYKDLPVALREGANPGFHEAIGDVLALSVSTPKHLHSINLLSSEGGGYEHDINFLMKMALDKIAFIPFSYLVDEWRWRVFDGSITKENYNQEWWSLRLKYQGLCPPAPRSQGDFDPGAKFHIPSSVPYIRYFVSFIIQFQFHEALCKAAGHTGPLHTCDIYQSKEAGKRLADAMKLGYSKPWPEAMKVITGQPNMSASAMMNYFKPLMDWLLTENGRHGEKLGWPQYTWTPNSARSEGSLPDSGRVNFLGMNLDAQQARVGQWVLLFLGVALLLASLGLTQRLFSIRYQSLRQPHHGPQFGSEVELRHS

[11] = DRUGMATRIX: Potassium Channel [KATP] radioligand binding (ligand: [3H] Glyburide); assay type: cell membranes, Membrane; conditions: hit-t15; Not Active = under 50% inhibition at 10 µM

Compound | IC50 [1] | Ki [1] | IC50 [2] | Ki [2] | IC50 ([3]; sf9) | IC50 [4] | IC50 [5] | IC50 [6] | Ki [6] | IC50 ([7]; hek293) | IC50 [8] | Ki [8] | IC50 [9] | IC50 [10] | IC50 [11] | Ki [11] | other results
c1ccc2c(c1)cc1ccc3cccc4ccc2c1c34 | Not Active | Not Active | Not Active | Not Active | Not Active | Not Active | Not Active | Not Active | Not Active | Not Active | Not Active | Not Active | Not Active | Not Active | Not Active | Not Active | 
CCCCCCCCCc1ccc(O)cc1 [4-NONYLPHENOL] | Not Active | Not Active | Not Active | Not Active | Not Active | Not Active | Not Active | Not Active | Not Active |  | Not Active | Not Active | Not Active | Not Active | Not Active | Not Active | IC50 ([7]; read-out: IC50): 4.19 µM; Ki ([7]; read-out: Ki): 3.14 µM
N#C[C@H](O[C@@H]1O[C@H](CO[C@@H]2O[C@H](CO)[C@@H](O)[C@H](O)[C@H]2O)[C@@H](O)[C@H](O)[C@H]1O)c1ccccc1 [AMYGDALIN] | Not Active | Not Active | Not Active | Not Active | Not Active | Not Active | Not Active | Not Active | Not Active | Not Active | Not Active | Not Active | Not Active | Not Active | Not Active | Not Active | 
C=C1[C@@H]2CCC3[C@@](CC[C@@H]4[C@H](C(=O)O)C[C@@H](O[C@@H]5O[C@H](CO)[C@@H](OS(=O)(=O)[O-])[C@H](OS(=O)(=O)[O-])[C@H]5OC(=O)CC(C)C)C[C@@]34C)(C2)[C@@H]1O.[K+].[K+] (some centres undefined) [ATRACTYLOSIDE] | Not Active | Not Active | Not Active | Not Active | Not Active | Not Active | Not Active | Not Active | Not Active | Not Active | Not Active | Not Active | Not Active | Not Active | Not Active | Not Active | 
CCCC[C@@H](CC)COC(=O)c1ccccc1C(=O)OC[C@@H](CC)CCCC [BIS(2-ETHYLHEXYL)PHTHALATE] | Not Active | Not Active | Not Active | Not Active | Not Active | Not Active | Not Active | Not Active | Not Active | Not Active | Not Active | Not Active | Not Active | Not Active | Not Active | Not Active | 
CN1C[C@H](C(=O)N[C@]2(C)O[C@@]3(O)[C@@H]4CCCN4C(=O)[C@H](Cc4ccccc4)N3C2=O)C=C2c3cccc4[nH]cc(c34)C[C@H]21 [ERGOTAMINE] | Not Active | Not Active | Not Active | Not Active |  | Not Active | Not Active | Not Active | Not Active | Not Active | Not Active | Not Active | Not Active | Not Active | Not Active | Not Active | IC50 ([3]; read-out: IC50): 0.012 µM; Ki ([3]; read-out: Ki): 0.00181 µM
C=C(C)[C@@H]1[C@H]2OC(=O)[C@@H]1[C@]1(O)C[C@H]3O[C@]34C(=O)O[C@H]2[C@]14C [PICROTOXININ] | Not Active | Not Active | Not Active | Not Active | Not Active | Not Active | Not Active | Not Active | Not Active | Not Active |  |  | Not Active | Not Active | Not Active | Not Active | 
CARBOPLATIN | Not Active | Not Active | Not Active | Not Active | Not Active | Not Active | Not Active | Not Active | Not Active | Not Active | Not Active | Not Active | Not Active | Not Active | Not Active | Not Active | Ki ([3]; sf9): Not Active; Ki [4]: Not Active; Ki [5]: Not Active; Ki ([7]; hek293): Not Active; Ki [9]: Not Active; Ki [10]: Not Active
